In PMC9747717, “A novel small molecule inhibitor of human Drp1” (Scientific Reports, 2022):
Several values for one entry are separate records, joined by “and”; a condition that tells them apart may be missing. Equal values may be shown once.

What was measured:
[1] = biological target: T1, human Drp1 isoform 3 (Homo sapiens, UniProt O00429); test: Surface plasmon resonance (SPR) binding; settings: human Drp1 isoform 3, 25 °C, 2% DMSO
T1 construct: His tag; made in house; host or cells: E. coli Rosetta (DE3), pET21b vector
Method: The recombinant human Drp1 protein (His-tagged human Drp1 isoform 3, kindly provided by Professor Michael Ryan, Monash University, Australia) was generated as described previously. Briefly, cDNA for human Drp1 (isoform 3) was cloned into pET21b vector and transformed in Rosetta (DE3) competent cells (Novagen, MA, Merck Millipore). Transformed cells were propagated in Luria–Bertani broth and protein expression was initiated by the addition of 0.5 mM isopropyl β-D-1-thiogalactopyranoside. […]
All SPR experiments were performed on a Biacore T200 instrument (GE Healthcare Life Sciences, Uppsala, Sweden) at 25 °C in the presence of HEPES buffered saline containing 20 mM phosphate (pH 7.5), 137 mM NaCl, 2.7 mM KCl and 0.05% Tween-20 (HBS + P). […] Sensor surface was activated with 1:1 mixture of 0.4 M EDC and 0.1 M NHS for 7 min, followed by incremental injections of the protein to reach ~ 8000 RU (flow rate 10 μL/minute) for a calculated maximum analyte binding capacity (Rmax) of 30–50 RU. […]
Compounds were dissolved in 100% dimethyl sulfoxide (DMSO) and then added to HBS + P at a final DMSO concentration of 2%. […] SPR results were analysed using the Biacore T200 Evaluation Software v.1.

[2] = test system: Human foreskin fibroblasts (HFF-1); test: Hydrogen peroxide-induced oxidative stress, cell death; format: cell-based; settings: 50 µM compound, 3 mM hydrogen peroxide, compared to DMSO control
Method: Human foreskin fibroblasts (HFF-1, ATCC, VA, USA) were treated with 3 mM hydrogen peroxide plus vehicle control (0.1% DMSO), Mdivi-1 (50 µM) or individual compound at 50 µM. After 2.5–3 h of incubation at 37 °C in a humidified 5% CO2 incubator, cells were stained with 1 μg/mL propidium iodide and 3 μg/mL Hoechst 33258 to determine the percentage of dead cells. Images were captured at 20 × objective with an inverted microscope (Olympus IX71). The number of dead cells (propodium iodide positive) was counted and expressed as a percentage over total number of cells (Hoechst 33258 positive). At least 100 cells were counted per group for each independent experiment.

T1 sequence (O00429 1-699 isoform O00429-4): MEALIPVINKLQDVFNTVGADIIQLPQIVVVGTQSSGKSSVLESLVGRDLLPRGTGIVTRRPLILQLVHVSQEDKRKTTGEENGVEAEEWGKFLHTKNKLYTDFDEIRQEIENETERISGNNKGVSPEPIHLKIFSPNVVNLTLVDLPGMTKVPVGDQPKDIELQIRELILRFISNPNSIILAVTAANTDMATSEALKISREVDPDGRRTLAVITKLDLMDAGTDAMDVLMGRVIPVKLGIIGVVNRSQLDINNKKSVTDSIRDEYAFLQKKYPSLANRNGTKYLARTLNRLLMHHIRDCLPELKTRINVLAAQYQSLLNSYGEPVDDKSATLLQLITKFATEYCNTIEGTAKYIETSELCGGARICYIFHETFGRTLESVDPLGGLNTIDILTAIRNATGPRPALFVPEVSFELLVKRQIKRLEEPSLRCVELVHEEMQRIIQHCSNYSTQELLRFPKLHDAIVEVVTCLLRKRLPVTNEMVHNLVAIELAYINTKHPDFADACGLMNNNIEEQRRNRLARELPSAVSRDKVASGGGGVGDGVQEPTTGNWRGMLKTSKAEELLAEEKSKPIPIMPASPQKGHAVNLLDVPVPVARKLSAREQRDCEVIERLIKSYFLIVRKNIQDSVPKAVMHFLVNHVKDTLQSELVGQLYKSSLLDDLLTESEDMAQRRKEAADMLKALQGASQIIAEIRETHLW

## Cc1nc[nH]c1CN1C[C@@H]2CC[C@H](C1)N(Cc1ccc(-c3cc[nH]n3)o1)C2 [DRP1i27]
[1]
  Kd: 286 µM and 287 µM
[2]
  cell death induced by hydrogen peroxide: significant reduction
